Experimental data as given in US20230226207A1, “Camptothecin Drug Having High-Stability Hydrophilic Connecting Unit And Conjugate Thereof” (SICHUAN BAILI PHARM CO., LTD, priority 2020, published 2023).

Assays:
[1] = test system: SK-BR-3 (human breast adenocarcinoma cells); assay: In vitro proliferation inhibition of SK-BR-3 tumor cells (MTS); assay type: cell-based; details: 120 h, SK-BR-3 cells, 5 days
Protocol: (§1) 1) Experimental Materials • Cells: from the cell bank of the Chinese Academy of Sciences; • Tumor cell culture medium: Gibco; • FBS: BIOWEST;
(§2) 2) Preparation of Medium • Growth medium (with 10% FBS, Penicillin/streptomycin (100 U/mL); • Detection medium (with 1% FBS, Penicillin/streptomycin (100 U/mL);
(§3) Turn on the UV lamp in the biological safety cabinet 30 minutes in advance, and ventilate for 3 minutes. Put the growth medium, detection medium, D-PBS and pancreatin into a 37° C. constant temperature water bath to preheat, then disinfect the surface with alcohol and put it in a biological safety cabinet. Select cells with a confluence of ˜80% (logarithmic growth phase), put them in a biological safety cabinet, aspirate the old medium, rinse with D-PBS, aspirate and discard, digest with trypsin for 2 to 3 minutes, and then add to growth Stop trypsin in the medium, and centrifuge at 500×g for 5 min. Aspirate the centrifugal supernatant, mix well with 4 mL detection medium, take 100 uL for counting (take out 50 uL cell fluid, add 50 μL 0.4% Trypan Blue Stain and mix well, and count after mixing). Plate the plate according to the number of cells set before, and plate 80 uL/well in a 96-well plate. Only add 80 uL detection medium to wells E11, F11, and G11, and add 200 uL DPBS to the edge holes to seal the edges. […]
(§4) Take out the MTS reagent after the test sample is exposed for 5 days. […] After the reaction, the 96-well plate was taken out, the OD490 nm absorbance value was detected in the microplate reader, and the data was recorded, sorted, and stored.

[2] = test system: N87 (human gastric cancer cells); assay: In vitro proliferation inhibition of N87 tumor cells (MTS); assay type: cell-based; details: 120 h, 5 days
Protocol: as §1, §2, §3, §4

CC[C@@]1(O)C(=O)OCc2c1cc1n(c2=O)Cc2c-1nc1cc(F)c(C)c3c1c2[C@@H](NC(=O)CO)CC3 [d1]
IC50 [1]: 0.104 µM | IC50 [2]: 0.0133 µM

CC[C@@]1(O)C(=O)OCc2c1cc1n(c2=O)Cc2c-1nc1cc(F)c(C)c3c1c2[C@@H](NC(=O)[C@H](C)O)CC3 [d3]
IC50 [1]: 0.183 µM | IC50 [2]: 0.00803 µM

CC[C@@]1(O)C(=O)OCc2c1cc1n(c2=O)Cc2c-1nc1cc(F)c(C)c3c1c2[C@@H](NC(=O)[C@H](O)C(F)(F)F)CC3 [d6]
IC50 [1]: 0.239 µM | IC50 [2]: 0.00215 µM
